Data set [1] concerns the target T1, purified recombinant form of human BACE1 aspartyl protease (Homo sapiens, UniProt P56817).
T1 construct: hexahistidine (C); made in house; host or cells: Drosophila cells
Kind of data set: in vitro inhibition of β-secretase (BACE1) activity, cleavage of fluorogenic peptide substrate FS1 (FRET). To be noted: recombinant human BACE1 10 nM, substrate FS1 5 μM, sodium acetate buffer pH 4.5, 37° C., 45 minutes; read-out: IC50 (concentration of product giving 50% inhibition of the enzyme activity). In kind it is biochemical. An excerpt:
The compounds according to the invention have been the subject of pharmacological tests enabling their inhibitory effect with respect to β-secretase activity to be determined.
The tests consisted in measuring the in vitro inhibition of the β-secretase activity by the compounds of the invention.
The β-secretase activity measured corresponds to that of a purified recombinant form of human BACE1 aspartyl protease (the latter comprising a hexahistidine tag at the C-terminal position) produced by expression in Drosophila cells. The purified enzyme is conditioned in TRIS buffer (18 mM) at pH 7.5 containing NaCl (0.45M), MnCl2 (0.9 mM), CaCl2 (0.9 mM), α-D-methylmannoside and 10% glycerol, and stored at −80° C. until use.
The BACE1 activity is measured from the cleavage of a fluorogenic peptide substrate, known as FS1, described originally by Ermolieff et Coll. (2000, Biochemistry, 39, 12450-12456), and based on the principle of fluorescence resonance energy transfer (FRET); the cleavage of the FS1 peptide is measured from the increase of the fluorescent signal emitted by the EDANS (or 5-[(2-aminoethyl)amino]-naphthalene-2-sulfonic acid) group.
The test is carried out in a 96-well microplate in order to determine the inhibition of the enzyme activity by the products of the invention. The substrate FS1 is solubilized to a concentration of 1 mM in 100% dimethylsulfoxide (DMSO) and stored at −20° C. until use. The dilutions of the products to be tested are prepared in DMSO starting from a 10 mM stock solution. The products of the invention, at final concentrations of 0.003 to 10 μM are incubated at 37° C. with the substrate FS1 (final concentration of 5 μM) and the purified enzyme (final concentration of 10 nM) in the sodium acetate buffer (0.1 M), pH 4.5 containing 0.02% of CHAPS detergent and […] for 45 minutes. […] When the incubation is finished, the fluorescence is measured in a spectrofluorimeter, at the excitation wavelength of 355 nm and emission wavelength of 509 nm. For each product concentration tested, the fluorescent signal is compared to the maximum signal obtained when the substrate FS1 is only incubated with the enzyme.
The inhibitory activity of the products of the invention is then evaluated by the measurement of the IC50 (concentration of product giving 50% inhibition of the enzyme activity) using a non-linear regression analysis (computer application software XLfit, IDBS™).

Structures can show the parent of a compound that is named as a salt.

T1 sequence (P56817 46-501): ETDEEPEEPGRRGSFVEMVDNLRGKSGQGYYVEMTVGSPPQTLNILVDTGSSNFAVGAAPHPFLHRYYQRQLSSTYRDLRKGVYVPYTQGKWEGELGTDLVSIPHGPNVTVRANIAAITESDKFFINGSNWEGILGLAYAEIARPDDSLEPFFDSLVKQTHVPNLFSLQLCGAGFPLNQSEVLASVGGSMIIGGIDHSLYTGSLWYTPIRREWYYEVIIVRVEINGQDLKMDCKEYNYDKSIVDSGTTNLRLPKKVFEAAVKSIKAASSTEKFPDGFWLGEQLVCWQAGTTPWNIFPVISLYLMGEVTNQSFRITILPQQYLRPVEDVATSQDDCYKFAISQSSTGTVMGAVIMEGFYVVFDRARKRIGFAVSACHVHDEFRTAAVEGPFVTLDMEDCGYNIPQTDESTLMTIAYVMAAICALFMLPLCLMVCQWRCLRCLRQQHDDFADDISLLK

As a reminder, the melting point is the temperature of the solid-liquid transition. On to `COC(=O)c1cc(C(=O)N[C@@H](Cc2ccccc2)[C@H](O)CNC2(c3cccc(C(F)(F)F)c3)CC2)n2c1CN(C(=O)OC(C)(C)C)CC2` [Compound 1, 2-tert-Butyl 8-methyl 6-{[(1S,2R)-1-benzyl-2-hydroxy-3-({1-[3-(trifluoromethyl)phenyl]cyclopropyl}amino)propyl]carbamoyl}-3,4-dihydropyrrolo[1,2-a]pyrazine-2,8(1H)-dicarboxylate], for which the melting point was found to be 136 °C.

For `CCN(CC)C(=O)c1cc(C(=O)N[C@@H](Cc2ccccc2)[C@H](O)CNC2(c3cccc(C(F)(F)F)c3)CC2)n2c1CNCC2` [Compound 5, 6-{(1S,2R)-1-benzyl-2-hydroxy-3-[1-(3-trifluoromethylphenyl)cyclopropylamino]propyl}-N-8,N-8-diethyl-1,2,3,4-tetrahydropyrrolo[1,2-a]pyrazine-6,8-dicarboxamide], the IC50 in data set [1] is 310 nM.

The compound `CCCC(CCC)N1CCn2c(C(=O)N[C@@H](Cc3ccccc3)[C@H](O)CNC3(c4cccc(C(F)(F)F)c4)CC3)ccc2C1=O.Cl` displayed a melting point of 176 °C.

Take `CCCC(CCC)N1CCCn2c(C(=O)N[C@@H](Cc3ccccc3)[C@H](O)CNCc3cccc(C(F)(F)F)c3)ccc2C1=O` [Compound 11, N-[(1S,2R)-1-Benzyl-2-hydroxy-3-{[3-(trifluoromethyl)benzyl]amino}propyl]-1-oxo-2-(1-propylbutyl)-2,3,4,5-tetrahydro-1H-pyrrolo[1,2-a][1,4]diazepine-7-carboxamide hydrochloride (1:1)]: in data set [1], the IC50 came to 1400 nM.

`CCN(CC)C(=O)c1cc(C(=O)N[C@@H](Cc2ccccc2)[C@H](O)CNC2(c3cccc(C(F)(F)F)c3)CC2)n2c1CNCC2` (as salt: HCl) [Compound 5, 6-{(1S,2R)-1-benzyl-2-hydroxy-3-[1-(3-trifluoromethylphenyl)cyclopropylamino]propyl}-N-8,N-8-diethyl-1,2,3,4-tetrahydropyrrolo[1,2-a]pyrazine-6,8-dicarboxamide] gave a melting point of 143 °C.

Compound `CCCC(CCC)N1CCn2c(C(=O)N[C@@H](Cc3ccccc3)[C@H](O)CNCc3cccc(C(F)(F)F)c3)ccc2C1=O.Cl` [Compound 9, N-[(1S,2R)-1-Benzyl-2-hydroxy-3-{[3-(trifluoromethyl)benzyl]amino}propyl]-1-oxo-2-(1-propylbutyl)-1,2,3,4-tetrahydropyrrolo[1,2-a]pyrazine-6-carboxamide hydrochloride (1:1)] registered a melting point of 168 °C. In addition, the IC50 in data set [1] turned out to be 370 nM.

Compound `CCCC(CCC)N1CCn2c(C(=O)N[C@@H](Cc3cc(F)cc(F)c3)[C@H](O)CNC3(c4cccc(C(F)(F)F)c4)CC3)ccc2C1=O.Cl` [Compound 7, N-[(1S,2R)-1-(3,5-Difluorobenzyl)-2-hydroxy-3-({1-[3-(trifluoromethyl)-phenyl]cyclopropyl}amino)propyl]-1-oxo-2-(1-propylbutyl)-1,2,3,4-tetrahydropyrrolo[1,2-a]pyrazine-6-carboxamide hydrochloride (1:1)] returned a melting point of 183 °C. Further, in data set [1], the IC50 stood at 480 nM.

`CC(C)(C)OC(=O)N1CCn2c(C(=O)N[C@@H](Cc3ccccc3)[C@H](O)CNC3(c4cccc(C(F)(F)F)c4)CC3)cc(C(=O)O)c2C1` [Compound 2, 6-{[(1S,2R)-1-Benzyl-2-hydroxy-3-({1-[3-(trifluoromethyl)phenyl]cyclopropyl}amino)propyl]carbamoyl}-2-(tert-butoxycarbonyl)-1,2,3,4-tetrahydropyrrolo[1,2-a]pyrazine-8-carboxylic acid] returned a melting point of 134.5 °C.

(Values after US20100197668A1, “1,2,3,4-TETRAHYDROPYRROLO[1,2-A]PYRAZINE-6-CARBOXAMIDE AND 2,3,4,5-TETRAHYDROPYRROLO[1,2-a][1,4]-DIAZEPINE-7-CARBOXAMIDE DERIVATIVES, PREPARATION AND THERAPEUTIC USE THEREOF” (SANOFI-AVENTIS, priority 2007, published 2010).)
